The text below walks through data of ChEMBL document CHEMBL4334511, “Trivirensols: Selectively Bacteriostatic Sesquiterpene Trimers from the Australian Termite Nest-Derived Fungus Trichoderma virens CMB-TN16” (J Nat Prod, 2019).

SMILES strings stand for the structures. Calls of active or inactive are those of the source. The rule behind the calls is not given here.

Series [1] has as its system Enterococcus faecalis. Kind of series: Antibacterial activity against vancomycin-resistant Enterococcus faecalis AUS-RBWH-VRE-01 assessed as colony formation unit at 30 uM incubated for 24 hrs by time kill assay. The format is functional.
For series [2], the system named is Enterococcus faecalis. Nature of the series: Antibacterial activity against vancomycin-resistant Enterococcus faecalis AUS-RBWH-VRE-01 assessed as reduction in […] growth incubated for 24 hrs by spectrophotometry based broth microdilution assay. Format: functional, organism-based. The following applies: Enterococcus faecalis, AUS-RBWH-VRE-01, 24 h; read-out: IC50. (Broth dilution looks for growth in wells or tubes with falling amounts of substance.)

In series [3] the test system is Staphylococcus aureus. Kind of series: Antibacterial activity against methicillin-resistant Staphylococcus aureus AUS-RBWH-MRSA-02 assessed as reduction in […] growth at 0.01 to 30 uM incubated for 24 hrs by spectrophotometry based broth microdilution assay. The format is functional, organism-based.
For series [4], the system named is Pseudomonas aeruginosa. Kind of series: Antibacterial activity against VIM producing Pseudomonas aeruginosa SA-EP-KFUH-40 assessed as reduction in […] growth at 0.01 to 30 uM incubated for 24 hrs by spectrophotometry based broth microdilution assay. Format: functional, organism-based.
The next series deals with Candida albicans. Nature of the series: Antifungal activity against Candida albicans ATCC 90028 assessed as reduction in fungal growth at 0.01 to 30 uM incubated for 24 hrs by spectrophotometry based broth microdilution assay. Format: functional, organism-based.
Another series relates to NCI-H460. Kind of series: Cytotoxicity against human NCI-H460 cells assessed as reduction in cell viability upto 30 uM incubated for 48 hrs by MTT assay. The following applies: nci-h460, 48 h. Format: cell-based. A general note: Formazan colour is commonly taken as a measure of viable cells.
The subject of series [5] is Klebsiella pneumoniae. Nature of the series: Antibacterial activity against OXA-48-producing Klebsiella pneumoniae SA-Rd-KAMC-014 assessed as reduction in […] growth at 0.01 to 30 uM incubated for 24 hrs by spectrophotometry based broth microdilution assay. Format: functional, organism-based.
The test system of the next series is Bacillus subtilis. Nature of the series: Antibacterial activity against Bacillus subtilis ATCC 6633 assessed as reduction in […] growth at 0.01 to 30 uM incubated for 24 hrs by spectrophotometry based broth microdilution assay. Format: functional, organism-based.
Series [6] has as its system Enterococcus faecalis. Nature of the series: Antibacterial activity against vancomycin-resistant Enterococcus faecalis AUS-RBWH-VRE-01 assessed as fold reduction in growth by measuring colony formation unit at 30 uM incubated for 24 hrs by time kill assay. Format: functional.
The subject of a further series is Acinetobacter baumannii. Kind of series: Antibacterial activity against OXA-23-producing Acinetobacter baumannii SA-Rd-KAMC-083 assessed as reduction in […] growth at 0.01 to 30 uM incubated for 24 hrs by spectrophotometry based broth microdilution assay. The format is functional, organism-based.
In series [7] the test system is Staphylococcus aureus. Nature of the series: Antibacterial activity against Staphylococcus aureus ATCC 9144 assessed as reduction in […] growth at 0.01 to 30 uM incubated for 24 hrs by spectrophotometry based broth microdilution assay. Format: functional, organism-based.
The subject of series [8] is Klebsiella pneumoniae. Nature of the series: Antibacterial activity against NDM-producing Klebsiella pneumoniae SA-Rd-KAMC-037 assessed as reduction in […] growth at 0.01 to 30 uM incubated for 24 hrs by spectrophotometry based broth microdilution assay. Format: functional, organism-based.
Another series deals with Streptococcus pyogenes. Kind of series: Antibacterial activity against Streptococcus pyogenes ATCC 12344 assessed as reduction in […] growth at 0.01 to 30 uM incubated for 24 hrs by spectrophotometry based broth microdilution assay. Format: functional, organism-based.
Series [9] relates to Escherichia coli. Kind of series: Antibacterial activity against Escherichia coli ATCC 11775 assessed as reduction in […] growth at 0.01 to 30 uM incubated for 24 hrs by spectrophotometry based broth microdilution assay. Format: functional, organism-based.
Another series relates to SW-620. Kind of series: Cytotoxicity against human SW620 cells assessed as reduction in cell viability upto 30 uM incubated for 48 hrs by MTT assay. The format is cell-based. Particulars: sw-620, 48 h.
Series [10] deals with Escherichia coli. Nature of the series: Antibacterial activity against Escherichia coli KUW-kw-AmH-11 assessed as reduction in […] growth at 0.01 to 30 uM incubated for 24 hrs by spectrophotometry based broth microdilution assay. Format: functional, organism-based.
Series [11] deals with Pseudomonas aeruginosa. Nature of the series: Antibacterial activity against IMP producing Pseudomonas aeruginosa UAE-DBI-ZMH-91 assessed as reduction in […] growth at 0.01 to 30 uM incubated for 24 hrs by spectrophotometry based broth microdilution assay. The format is functional, organism-based.
Series [12] in a line: Prodrug conversion in vancomycin-resistant Enterococcus faecalis AUS-RBWH-VRE-01 assessed as hydrolysis product divirensol B formation at 30 uM incubated for 24 hrs by UHPLC-DAD-ESIMS analysis. Format: ADME.
Series [13] in a line: Prodrug conversion in vancomycin-resistant Enterococcus faecalis AUS-RBWH-VRE-01 assessed as hydrolysis product butenolide formation at 30 uM incubated for 24 hrs by UHPLC-DAD-ESIMS analysis. The format is ADME.

Turning to `CCCCCCCCCC(=O)N[C@@H](Cc1c[nH]c2ccccc12)C(=O)N[C@H](CC(N)=O)C(=O)N[C@@H](CC(=O)O)C(=O)N[C@@H]1C(=O)NCC(=O)N[C@@H](CCCN)C(=O)N[C@@H](CC(=O)O)C(=O)N[C@H](C)C(=O)N[C@@H](CC(=O)O)C(=O)NCC(=O)N[C@H](CO)C(=O)N[C@@H]([C@H](C)CC(=O)O)C(=O)N[C@@H](CC(=O)c2ccccc2N)C(=O)O[C@@H]1C`, the Activity in the series on Enterococcus faecalis [1] is recorded as 50 CFU/ml.

Turning to `CC(C)[C@H]1CC[C@@](O)(COC(=O)/C(=C/[C@@H]2[C@@H](C(C)C)CC[C@@](O)(COC(=O)/C(=C/[C@H]3C4=C(CC[C@@H]3C(C)C)COC4=O)CO)[C@H]2C(=O)O)CO)[C@H]2C(=O)OCC(C(=O)O)=C[C@H]12`, the IC50 in the series with Enterococcus faecalis [2] is 1000 nM. In addition, the result with Staphylococcus aureus [3], in the series with Pseudomonas aeruginosa [4], in the series with Candida albicans, in the series with Klebsiella pneumoniae [5], in the series with Bacillus subtilis and in the series with Acinetobacter baumannii was inactive. Besides, the outcome with Staphylococcus aureus [7], in the series on Klebsiella pneumoniae [8], with Streptococcus pyogenes, in the series with Escherichia coli [9], with Escherichia coli [10] and in the series on Pseudomonas aeruginosa [11] was inactive. Also, the Activity entry in the series on NCI-H460 and in the series with SW-620 was “Non-Toxic” each time. In addition, the “fold change (FC)” value in the series with Enterococcus faecalis [6] came to 10000.

In the case of `CC(C)[C@H]1CC[C@@](O)(COC(=O)/C(=C/[C@@H]2[C@@H](C(C)C)CC[C@@]3(O)COC(=O)[C@@H]23)CO)[C@H]2C(=O)OCC(C(=O)O)=C[C@H]12`, the result with Staphylococcus aureus [3], in the series with Pseudomonas aeruginosa [4], with Candida albicans, in the series with Klebsiella pneumoniae [5], in the series on Bacillus subtilis and in the series on Acinetobacter baumannii was inactive. Further, the result in the series on Staphylococcus aureus [7], in the series with Klebsiella pneumoniae [8], in the series on Streptococcus pyogenes, with Escherichia coli [9], in the series on Escherichia coli [10] and in the series with Pseudomonas aeruginosa [11] was inactive. Besides, the values for the Drug metabolism result in series [12] and in series [13] were “Metabolite_Detected” and “Metabolite_Notdetected”, respectively. Also, the Activity result with NCI-H460 and with SW-620 was “Non-Toxic” in each case. In addition, the outcome with Enterococcus faecalis [6] was Active.

Regarding `CC(C)[C@H]1CC[C@@](O)(COC(=O)C2=C[C@@H]3[C@@H](C(C)C)CC[C@@](O)(COC(=O)/C(=C/[C@H]4C5=C(CC[C@@H]4C(C)C)COC5=O)CO)[C@H]3C(=O)OC2)[C@H]2C(=O)OCC(C(=O)O)=C[C@H]12`, the concentration for half-maximal inhibition (IC50) in the series with Enterococcus faecalis [2] came out at 1600 nM. Moreover, the result in the series on Staphylococcus aureus [3], in the series with Pseudomonas aeruginosa [4], in the series on Candida albicans, in the series with Klebsiella pneumoniae [5], in the series with Bacillus subtilis and in the series on Acinetobacter baumannii was inactive. Also, the outcome in the series on Staphylococcus aureus [7], in the series on Klebsiella pneumoniae [8], in the series with Streptococcus pyogenes, with Escherichia coli [9], in the series with Escherichia coli [10] and in the series with Pseudomonas aeruginosa [11] was inactive. Also, the Activity result in the series on NCI-H460 and with SW-620 was “Non-Toxic” throughout. Besides, in the series with Enterococcus faecalis [6], the “fold change (FC)” value is recorded as 10000.

The IC50 is the point on the concentration scale where inhibition reaches its midpoint.
